The assay concerns taxol induced neuropathic pain model in rats. The assay can be described thus: Taxol induced neuropathic pain study in rats (Von Frey testing). The conditions noted are these: taxol treated rats, 1, 3, 10 mg/kg PO b.i.d. It counts as in vivo, rat. How it is done: This study included a histology endpoint in addition to the von Frey testing for paw sensitivity.
Neuropathic pain is induced by a 0.5 ml/kg injection of Taxol (2 mg/kg) administered IP on days 0-12. The development of neuropathic pain is confirmed by measuring mechanical allodynia (Von Frey test) on study day 13.
Allodynic response to tactile stimulation is assessed using the Von Frey apparatus (Touch Test®).
The rat will be placed in an enclosure and positioned on a metal mesh surface, but allowed to move freely. The rats' cabins are covered with red cellophane to diminish environmental disturbances. The test begins after a cessation of exploratory behavior. The set of Von Frey monofilaments provide an approximate logarithmic scale of actual force and a linear scale of perceived intensity.
The operating principle: when the tip of a fiber of given length and diameter is pressed against the skin at right angles, the force of application increases as long as the researcher continues to advance the probe until the fiber bends. After the fiber bends, the probe continues to advance, causing the fiber to bend more, but without additional force being applied. […] The Touch Test™ Sensory Evaluator can be used on the plantar surfaces of the rat's foot. The animal indicates sensation by pulling back its paw. […]

“Also recorded” adds a separate entry of the source.

In the case of `O=C(NO)c1cnc(NC2(c3ccccc3)CCC(F)(F)CC2)nc1` [Compound 003], the “Effect on nociception / tactile allodynia (Von Frey)” value is reported as “completely reversed nociception; also recorded: reduced tactile allodynia”.

(Values after patent US9884850B2, “Pyrimidine hydroxy amide compounds as HDAC6 selective inhibitors” (Acetylon Pharmaceuticals, Inc., priority 2014, dated 2018).)
